# Patent publication US20230212517A1, “METHODS FOR GENERATING HEMATOPOIETIC STEM CELLS” (The Brigham and Women's Hospital, Inc., priority 2018, published 2023)
# Test system: E11.5 AGM cells
# Assay: Hematopoietic colony formation unit (CFU) and FACS assays on E11.5 AGM cells
# Assay type: cell-based, mouse
# Conditions: substance alone vs. control
# Description: Pulsating blood vessels like conditions were stimulated in vitro using FLEXCELL FX-4000 cell stretching bioreactor machine. To analyze roles of pharmacological targets in regulating the endothelial-to-HSC transition, mouse embryo-derived AGM or whole mouse embryo were exposed ex vivo with biomechanical stretching, chemicals, or drugs. Next, hematopoietic colony formation assays were performed by incubating mouse AGM-derived cells in StemCell M3434 media for seven days. Serial transplantation of AGM-derived HSCs in lethally irradiated SJL mice were performed. The stem cell frequency upon biomechanical stretching was analyzed using a limiting dilution assay. To characterize properties of AGM-HSC-derived blood cells in primary transplants, percentage chimerism and reconstitution was measured using FACS, globin transcripts were analyzed using quantitative reverse transcriptase-PCR, myeloperoxidase amount was measured using PICOKINE ELISA kit, TCR-β rearrangement was analyzed using PCR for TCR-β locus, pre-immune IG detection was analyzed using Thermo-Fisher Mouse Ig Isotyping kit, and delayed-type hypersensitivity was analyzed by injecting sheep RBC (Rockland Immunochemicals) in the footpad of pre-sensitized mice.
# E11.5 AGM were harvested from C57BL6/J Cd45.2 mouse embryos, and a single cell suspension of a three-embryo equivalent of cells was seeded on each well of a BioFlex six-well culture plate (FlexCell). We cultured cells overnight with the application of cyclic strain (Flexcell® FX4000™ Tension System) and/or treatment with chemical modulators (25-50 μM Yoda1, 1 μM Nanaomycin, 100 μM GdCl3, 1 uM GsMTx4, 5-20 μM 4αPDD, 10 uM GSK205). Next, harvested cells were used to perform transplant, fluorescence-activated cell sorting (FACS) analysis, and colony-forming unit (CFU) assays.
# E11.5 mouse embryos were harvested from the uterus of the time-mated pregnant female, into sterile glass vials containing FBS, 1 mM glucose, 1% Penicillin-Streptomycin, and/or the selected chemical modulator (25-50 μM Yoda1, 1 μM Nanaomycin, 5-20 μM 4αPDD, or 10 uM GSK205). We placed glass vials in the ex vivo incubator (BTC Engineering, Cambridge, UK) consisting of a roller apparatus (rotating ˜30 rpm), constant gas supply (21% O2, 5% CO2, balance N2) and constant temperature at 37° C. After 24 hours, AGM were harvested to analyze the formation of hematopoietic cells by FACS and CFU assays.
# For CFU assays, cells from AGM explant or ex vivo were plated in METHOCULT GF M3434 media (StemCell Technologies). Seven days after seeding, we analyzed their capacity to make granulocyte, erythroid, macrophage, megakaryocyte (GEMM), granulocyte macrophage (GM), granulocyte (G), macrophage (M), and erythroid (E) colonies.
# AGM cells from explants and ex vivo were stained with Sca1-Pacific-Blue (E13-161.7, Biolegend) and Flk1-APC-Cy7 (Avas 12α1, BD). Blood from transplanted mice was stained with the following antibody cocktail: Cd45.2-Pacific-Blue (104, Biolegend), Cd45.1-FITC (A20, Biolegend), Cd3-PE (145-2C11, Biolegend), Cd8-PE (53-6.7, Biolegend), Mac1-APC (M1/70, Biolegend), Gr1-APC (108412, Biolegend), Cd19-APC-CY7 (6D5, Biolegend), B220-APC-CY7 (RA3-6B2, Biolegend).
smiles,measurement,value
"Clc1cccc(Cl)c1CSc1nnc(-c2cnccn2)s1 [Yoda1, 2-[5-[[(2,6-Dichlorophenyl)methyl]thio]-1,3,4-thiadiazol-2-yl]-pyrazine]",hematopoietic colony formation (endothelial-to-hematopoietic transition),stimulates the endothelial-to-hematopoietic transition
